Source: patent publication US4874862A, “Process for preparing guanine derivatives” (Warner-Lambert Company, priority 1987, dated 1989)

System: T-cells
Experiment: standard test of selective cytotoxicity for T-cells in the presence of 2'-deoxyguanosine
Format: cell-based
Conditions: in the presence of 10 uM of 2'-deoxyguanosine
Description: PNP-4 activity was measured radiochemically by measuring the formation of [^14 -C]-hypoxanthine from [^14 -C]-inosine [Biomedicine, 33, 39 (1980)] using human erythrocyte as the enzyme source. The same compounds also were found by a standard test (Science, 214, 1137, (1981)] to be selectively cytotoxic for T-cells in the presence of 2'-deoxyguanosine at a similar concentration range. For example, 8-amino-9-[(4-methylphenyl)methyl]guanine is selectively cytotoxic to T-cells at a concentration of about 3.1 uM in the presence of 10 uM of 2'-deoxyguanosine. Similarly, 8-amino-9-[(4-methoxyphenyl)methyl]guanine is selectively cytotoxic to T-cells at a concentration of about 1.1 uM in the presence of 10 uM of 2'-deoxyguanosine. On the other hand, these compounds were nontoxic to B-cells in the presence or absence of the same amount of 2'-deoxyguanosine. Since T-cells play a central role in immune response, use of the compounds of the invention is contemplated for the immunoregulation of rejection in transplantation and autoimmune disease such as rheumatoid arthritis, systemic lupus erythematosus, inflammatory bowel disease, cancer, juvenile diabetes, myasthenia gravis, multiple sclerosis, and viral diseases. […]

Q: How did the “concentration at which selectively cytotoxic to T-cells” value turn out when `COc1ccc(Cn2c(N)nc3c(=O)[nH]c(N)nc32)cc1` [8-amino-9-[(4-methoxyphenyl)methyl]guanine] was run?
A: Its value is “about 1.1 uM”.

Q: For `Cc1ccc(Cn2c(N)nc3c(=O)[nH]c(N)nc32)cc1` [8-amino-9-[(4-methylphenyl)methyl]guanine], which “concentration at which selectively cytotoxic to T-cells” value is on record?
A: Its value is “about 3.1 uM”.
